Source: patent US6551774B1, “Diagnostic methods for conditions associated with elevated cellular levels of telomerase activity” (Board of Regents, The University of Texas System, priority 1992, dated 2003)

What was measured:
[1] = system: lymphoma cell line JY 616; experiment: Growth of cultured JY lymphoma cells with potential telomerase inhibitors; format: cell-based, human; settings: 50 μM; normal rate until week 3
Protocol: The effect of the agents on telomerase activity in intact cells was then studied utilizing the lymphoma cell line JY 616 which were maintained in RPMI 1640 with […] Hepes, 10% FCS, and penicillin/streptomycin (Gibco). The cells were cultured in 6-well plates (Falcon) with 5.0 ML of medium per well in duplicate. Cells were passaged every 7-10 days which corresponded to 5-7 mean population doublings (MPD), and seeded at 3×10^4 cells per well into fresh medium containing analog or control. Cell viability was monitored prior to harvest utilizing trypan blue stain (Gibco) during counting with a hemocytometer. The average ratio of stained: unstained cells (dead:alive) was […]. The intactness of the DNA was measured on a parallel gel by observing its mobility in a gel prior to digestion by a restriction enzyme.

Tetrahymena cells [2] = experiment: Progeny formation (cycloheximide resistance) of Tetrahymena conjugated in the presence of analog; format: cell-based, Tetrahymena thermophila; settings: for # CHX-R: number of cycloheximide-resistant wells
Tetrahymena cells [3] = experiment: Growth, morphology and senescence of Tetrahymena mass-transfer cultures with nucleoside analogs; format: cell-based, Tetrahymena thermophila
Protocol: For analysis of macronuclear DNA from cultures containing the nucleoside analog AZT (Sigma), or controls lacking analog, at various timepoints during vegetative divisions, cells from stationary stock cultures were inoculated into 25 ml thymine-deficient Iso-sensitest broth (‘Isobroth’, Oxoid USA) in 250 ml flasks. Cultures were incubated at 30° C. with shaking (100 rpm) for 48 hours. Cells were counted and plated at 1000 cells/1.5 ml in 24-well plates (Falcon) and grown at 30° C., without shaking, for 48 hours. 5 μl of these log phase cells were used to inoculate 1 ml cultures (Isobroth) containing varied concentrations of nucleoside analog. Thereafter, every 2-4 days cells were transferred, either 5 μl per well, or 1-3 μl using a multi-pronged replicator into fresh 1 ml broth containing AZT. Remaining cells were pelleted and stored at −80° C. until processed for DNA analysis.
For analysis of macronuclear DNA from vegetative cultures containing the nucleoside analogs Ara-G (Calbiochem), ddG (Calbiochem), or ddI (Calbiochem), or controls lacking analog, stock cultures were grown overnight in 2% PPYS as described. Cells were counted and plated at 100 cells/2 ml in 2% PPYS containing varied amounts of analog, 1% DMSO (Fisher) (as a control for ddG and Ara-G), or 2% PPYS alone. Cells were replica plated into fresh medium every 2-6 days, and remaining cells were pelleted and stored at −80° C. until processed for DNA analysis.
To test whether such a phenotype could be produced by inhibitors of telomerase in Tetrahymena, duplicate log-phase cultures were grown for prolonged periods in the presence of varying concentrations of analogs. The growth and cell morphology of these cultures were monitored, and DNA was isolated at different times for telomere length analysis. […] From growth rate measurements it was calculated that the cells went through 150 to 250 cell generations in the course of this 50 day period.

Cc1cn([C@H]2C[C@H](N=[N+]=[N-])[C@@H](CO)O2)c(=O)[nH]c1=O [AZT]
cell growth [1]: ceased proliferating
% CHX-R (Tetrahymena cells [2]; 0.01 mM analog (head prints MM), first block for the analog): 72%
% CHX-R (Tetrahymena cells [2]; 0.01 mM analog (head prints MM), second block for the analog): 73%
# CHX-R (Tetrahymena cells [2]; 0.01 mM analog, first block for the analog): 121
# CHX-R (Tetrahymena cells [2]; 0.01 mM analog, second block for the analog): 67
% CHX-R (Tetrahymena cells [2]; 0.1 mM analog (head prints MM), first block for the analog): 68%
% CHX-R (Tetrahymena cells [2]; 0.1 mM analog (head prints MM), second block for the analog): 67%
# CHX-R (Tetrahymena cells [2]; 0.1 mM analog, first block for the analog): 100
# CHX-R (Tetrahymena cells [2]; 0.1 mM analog, second block for the analog): 128
% CHX-R (Tetrahymena cells [2]; 1.0 mM analog (head prints MM), first block for the analog): 55%
% CHX-R (Tetrahymena cells [2]; 1.0 mM analog (head prints MM), second block for the analog): 48%
# CHX-R (Tetrahymena cells [2]; 1.0 mM analog, first block for the analog): 91
# CHX-R (Tetrahymena cells [2]; 1.0 mM analog, second block for the analog): 60
% CHX-R (Tetrahymena cells [2]; 5.0 mM analog (head prints MM), first block for the analog): 63%
% CHX-R (Tetrahymena cells [2]; 5.0 mM analog (head prints MM), second block for the analog): 53%
# CHX-R (Tetrahymena cells [2]; 5.0 mM analog, first block for the analog): 75
# CHX-R (Tetrahymena cells [2]; 5.0 mM analog, second block for the analog): 89
irreversible disruption of macronuclear development (Tetrahymena cells [2]; analog present during conjugation): little or no irreversible disruption
effect on cell growth and survival (Tetrahymena cells [3]; 5 or 10 mM in Isobroth medium): strongly inhibited cell growth and killed cells within a day
senescence of cultures (Tetrahymena cells [3]; up to 1 mM in Isobroth, 50-day continuous growth, ˜10^3 cells per transfer): did not result in senescence
